Data from PubChem BioAssay (NCI).
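Protocol summary: plate cells (96-well), add compound at 5 concentrations, incubate 48 h, interpolate endpoints linearly. Abbreviation: GI50, concentration required for 50% inhibition of growth. TGI: concentration producing complete growth inhibition.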

Experiments:
Assay in all cases: inhibition of tumour cell growth, NCI panel, 48 h
KM12 colon = tested on: KM12 colon
MALME-3M melanoma = tested on: MALME-3M melanoma
IGROV1 ovarian = tested on: IGROV1 ovarian
HCT-116 colon = tested on: HCT-116 colon
PC-3 prostate = tested on: PC-3 prostate
NCI/ADR-RES ovarian = tested on: NCI/ADR-RES ovarian
COLO 205 colon = tested on: COLO 205 colon
SF-295 CNS = tested on: SF-295 CNS
EKVX NSCLC = tested on: EKVX NSCLC
K-562 leukemia = tested on: K-562 leukemia

| Structure (SMILES) | GI50 (KM12 colon) | TGI (KM12 colon) | GI50 (MALME-3M melanoma) | TGI (MALME-3M melanoma) | GI50 (IGROV1 ovarian) | TGI (IGROV1 ovarian) | GI50 (HCT-116 colon) | TGI (HCT-116 colon) | GI50 (PC-3 prostate) | TGI (PC-3 prostate) | GI50 (NCI/ADR-RES ovarian) | TGI (NCI/ADR-RES ovarian) | GI50 (COLO 205 colon) | TGI (COLO 205 colon) | GI50 (SF-295 CNS) | TGI (SF-295 CNS) | GI50 (EKVX NSCLC) | TGI (EKVX NSCLC) | GI50 (K-562 leukemia) | TGI (K-562 leukemia) |
| --- | --- | --- | --- | --- | --- | --- | --- | --- | --- | --- | --- | --- | --- | --- | --- | --- | --- | --- | --- | --- |
| O=C(CI)Nc1ccc(Br)cc1 | 2.9 µM | 10.7 µM | 2.1 µM | 4.29 µM | 2.35 µM | 4.88 µM | 1.88 µM | 3.45 µM | 2.43 µM | 6.22 µM | 3.03 µM | 9.76 µM | 1.85 µM | 3.7 µM | 11.2 µM | 30.7 µM | 2.25 µM | 5.85 µM | 2.53 µM | > 100 µM |
| CN(CCCCCl)P(=O)(OCc1ccc([N+](=O)[O-])o1)OCC1OC(n2cc([N+](=O)[O-])c(=O)[nH]c2=O)CC1O (centres undefined) | > 100 µM | > 100 µM | > 100 µM | > 100 µM | > 100 µM | > 100 µM | 66.5 µM | > 100 µM | > 100 µM | > 100 µM | > 100 µM | > 100 µM | 44 µM | > 100 µM | 49.8 µM | > 100 µM | > 100 µM | > 100 µM | 49.8 µM | > 100 µM |
| CC/C=C\C[C@H]1C/C=C2/C(=O)C(Cl)=C[C@@H]2C/C=C\CCCC(=O)O1 | 0.403 µM | 1.07 µM | 0.398 µM | 1.22 µM | 0.605 µM | 1.94 µM | 0.205 µM | 0.859 µM | 0.346 µM | 0.986 µM | 0.423 µM | 2.37 µM | 0.467 µM | 0.958 µM | 0.705 µM | 2.26 µM | 0.805 µM | 4.62 µM | 0.0961 µM | 3.14 µM |
| COc1cnccc1Nc1nc(-c2nn(Cc3c(F)cc(OCCO)cc3F)c3ccccc23)ncc1OC | 3.88 µM | 63.6 µM | 2.16 µM | 5.88 µM | 2.89 µM | 16.4 µM | 3.64 µM | 20.2 µM | 2.55 µM | > 100 µM | 2.97 µM | 16.5 µM | 17.7 µM | > 100 µM | 7.26 µM | 24.9 µM | 13.5 µM | 61.6 µM | 0.645 µM | > 100 µM |
| N=C(CC(=O)Nc1ccccn1)c1ccccc1 | – | > 100 µM | – | > 100 µM | – | > 100 µM | – | > 100 µM | – | > 100 µM | – | > 100 µM | – | > 100 µM | – | > 100 µM | – | > 100 µM | – | > 100 µM |
| C[C@]12CCC(=O)C[C@@H]1CC[C@@H]1[C@@H]2CC[C@]2(C)[C@@H](OC(=O)N(CCCl)N=O)CC[C@@H]12 | 1.49 µM | 6.41 µM | 4.3 µM | 24.1 µM | 1.47 µM | 12.8 µM | 2.89 µM | > 35.1 µM | 1.1 µM | – | 1.22 µM | 28 µM | 1.7 µM | 4.72 µM | 0.133 µM | > 45.4 µM | 4.88 µM | > 41.1 µM | 2.69 µM | > 43.4 µM |
